Laboratory results taken from patent US20250262201A1, “COMPOUNDS AND METHODS USEFUL FOR STABILIZING PHENYLALANINE HYDROXYLASE MUTATIONS” (Agios Pharmaceuticals, Inc., priority 2022, published 2025).

Molecular target: T1, human PAH with the R408W mutation (Homo sapiens, UniProt P00439, R408W)
T1 construct: expressed in transfected cells
T1 sequence (P00439 1-452 R408W): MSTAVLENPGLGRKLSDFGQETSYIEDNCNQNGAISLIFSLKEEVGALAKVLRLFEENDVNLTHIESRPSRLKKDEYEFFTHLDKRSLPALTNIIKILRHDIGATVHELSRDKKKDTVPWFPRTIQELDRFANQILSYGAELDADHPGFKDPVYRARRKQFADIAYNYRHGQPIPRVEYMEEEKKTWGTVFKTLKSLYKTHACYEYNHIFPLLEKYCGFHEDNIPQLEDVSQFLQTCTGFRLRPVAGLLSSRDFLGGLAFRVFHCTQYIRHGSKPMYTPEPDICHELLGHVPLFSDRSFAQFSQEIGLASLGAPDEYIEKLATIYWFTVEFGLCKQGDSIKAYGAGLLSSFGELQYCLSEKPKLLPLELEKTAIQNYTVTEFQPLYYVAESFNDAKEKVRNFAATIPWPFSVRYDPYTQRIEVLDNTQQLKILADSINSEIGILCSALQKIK
Experiment: Cell Based Phenylalanine Flux Assay
Details: A375 R408W cells, 24 hrs with compound, then 20 μM sepiapterin and 800 μM 13C9,15N-Phenylalanine for 4 hours; 13C-Tyrosine by LC-MS; average where tested multiple times; read-out: AC50

Structure (SMILES) | AC50
O=C(C1CN(CC(F)(F)F)C1)N1CCc2[nH]cnc2C1c1ccc2ccccc2n1 (stereo not shown) [listing 1 of 2 here] | 1 to 5 µM
O=C(c1cnn(-c2ccccn2)c1)N1CCc2[nH]cnc2C1c1ccc2ccccc2n1 (stereo not shown) | 1 to 5 µM
O=C(C1CN(c2ccccn2)C1)N1CCc2[nH]cnc2C1c1ccc2ccccc2n1 (stereo not shown) [listing 1 of 2 here] | 1 to 5 µM
Cn1nc(COC(F)(F)F)cc1C(=O)N1CCc2[nH]cnc2C1c1ccc2ccccc2n1 (stereo not shown) | 1 to 5 µM
Cn1cc(-c2ncc(C(=O)N3CCc4[nH]cnc4C3c3ccc4ccccc4n3)o2)cn1 (stereo not shown) | 1 to 5 µM
Cc1nc(CCN2CC(F)C2)oc1C(=O)N1CCc2[nH]cnc2C1c1ccc2ccccc2n1 (stereo not shown) [listing 1 of 2 here] | 1 to 5 µM
COC(C)(C)c1nc(C)c(C(=O)N2CCc3[nH]cnc3C2c2ccc3ccccc3n2)o1 (stereo not shown) | 1 to 5 µM
Cc1nc(N2CCC(F)CC2)oc1C(=O)N1CCc2[nH]cnc2C1c1ccc2ccccc2n1 (stereo not shown) [listing 1 of 2 here] | 1 to 5 µM
O=C(c1oc(C2CC2)nc1C(F)F)N1CCc2[nH]cnc2C1c1ccc2ccccc2n1 (stereo not shown) | 1 to 5 µM
O=C(c1oc(-c2ccccn2)nc1C1CC1)N1CCCc2[nH]cnc2C1c1ccc2ccccc2n1 (stereo not shown) [listing 1 of 2 here] | 1 to 5 µM
Cc1nc(N2CCN(C)CC2)oc1C(=O)N1CCc2[nH]cnc2C1c1ccc2ccccc2n1 (stereo not shown) | 1 to 5 µM
Cc1nc(N2CCOCC2)oc1C(=O)N1CCc2[nH]cnc2C1c1ccc2ccccc2n1 (stereo not shown) [listing 1 of 2 here] | 1 to 5 µM
O=C(c1nnc(-c2ccn(CC(F)F)n2)o1)N1CCc2[nH]cnc2C1c1ccc2ccccc2n1 (stereo not shown) [listing 1 of 2 here] | 1 to 5 µM
O=C(c1nnc(-c2cn[nH]c2)o1)N1CCc2[nH]cnc2C1c1ccc2ccccc2n1 (stereo not shown) [listing 1 of 2 here] | 1 to 5 µM
O=C(c1nnc(CCN2CCOCC2)o1)N1CCc2[nH]cnc2C1c1ccc2ccccc2n1 (stereo not shown) [listing 1 of 2 here] | 1 to 5 µM
O=C(c1nnc(N2CC(F)C2)o1)N1CCc2[nH]cnc2C1c1ccc2ccccc2n1 (stereo not shown) [listing 1 of 2 here] | 1 to 5 µM
O=C(c1nnc(C2CC(F)(F)C2)o1)N1CCc2[nH]cnc2C1c1ccc2ccccc2n1 (stereo not shown) [listing 1 of 2 here] | 1 to 5 µM
O=C(c1nnc(-c2ccc(C(F)(F)F)cc2)o1)N1CCc2[nH]cnc2C1c1ccc2ccccc2n1 (stereo not shown) [listing 1 of 2 here] | 1 to 5 µM
Cc1cc(F)ccc1-c1nnc(C(=O)N2CCc3[nH]cnc3C2c2ccc3ccccc3n2)o1 (stereo not shown) | 1 to 5 µM
O=C(c1nnc(N2CCC(F)CC2)o1)N1CCc2[nH]cnc2C1c1ccc2ccccc2n1 (stereo not shown) [listing 1 of 2 here] | 1 to 5 µM
O=C(c1nnc(-c2ccc(C(F)(F)F)cn2)o1)N1CCc2[nH]cnc2C1c1ccc2ccccc2n1 (stereo not shown) [listing 1 of 2 here] | 1 to 5 µM
O=C(c1nnc(COC(F)(F)F)o1)N1CCc2[nH]cnc2C1c1ccc2ccccc2n1 (stereo not shown) [listing 1 of 2 here] | 1 to 5 µM
COCc1nnc(C(=O)N2CCc3[nH]cnc3C2c2ccc3ccccc3n2)o1 (stereo not shown) | 1 to 5 µM
O=C(c1nnc(-c2ccccn2)o1)N1CCCc2[nH]cnc2C1c1ccc2ccccc2n1 (stereo not shown) | > 5 µM

Structure (SMILES) | AC50
O=C(c1cnn(-c2ccccn2)c1Cl)N1CCc2[nH]cnc2C1c1ccc2ccccc2n1 (stereo not shown) [listing 1 of 2 here] | 1 to 5 µM
COCCc1ccc2c(C(=O)N3CCc4[nH]cnc4C3c3ccc4ccccc4n3)cnn2c1 (stereo not shown) [listing 1 of 2 here] | 1 to 5 µM
COCc1ccc2c(C(=O)N3CCc4[nH]cnc4C3c3ccc4ccccc4n3)cnn2c1 (stereo not shown) | > 5 µM
O=C(C1CC1(F)F)N1CCc2[nH]cnc2C1c1ccc2ccccc2n1 (stereo not shown) | 1 to 5 µM
Cc1nc(N)oc1C(=O)N1CCc2[nH]cnc2C1c1ccc2ccccc2n1 (stereo not shown) [listing 1 of 2 here] | 1 to 5 µM
O=C(c1nnc(CCNC2CC2)o1)N1CCc2[nH]cnc2C1c1ccc2ccccc2n1 (stereo not shown) [listing 1 of 2 here] | 1 to 5 µM
COCCNc1nnc(C(=O)N2CCc3[nH]cnc3C2c2ccc3ccccc3n2)o1 (stereo not shown) [listing 1 of 2 here] | 1 to 5 µM
Cc1nc(NC2CC2)oc1C(=O)N1CCc2[nH]cnc2C1c1ccc2ccccc2n1 (stereo not shown) [listing 1 of 2 here] | 1 to 5 µM
O=C(c1nnc(NC2CC2)o1)N1CCc2[nH]cnc2C1c1ccc2ccccc2n1 (stereo not shown) [listing 1 of 2 here] | 1 to 5 µM
CN(C)c1nnc(C(=O)N2CCc3[nH]cnc3C2c2ccc3ccccc3n2)o1 (stereo not shown) [listing 1 of 2 here] | 1 to 5 µM
Cc1nc(N(C)C)oc1C(=O)N1CCc2[nH]cnc2C1c1ccc2ccccc2n1 (stereo not shown) | 1 to 5 µM
Cc1nc(CCN(C)C)oc1C(=O)N1CCc2[nH]cnc2C1c1ccc2ccccc2n1 (stereo not shown) | 1 to 5 µM
CN(C)Cc1nnc(C(=O)N2CCc3[nH]cnc3C2c2ccc3ccccc3n2)o1 (stereo not shown) [listing 1 of 2 here] | 1 to 5 µM
COC(=O)N1CC(C(=O)N2CCc3[nH]cnc3C2c2ccc3ccccc3n2)C1 (stereo not shown) | > 5 µM
O=C(C1CN(CC(F)(F)F)C1)N1CCc2[nH]cnc2C1c1ccc2ccccc2n1 (stereo not shown) [listing 2 of 2 here] | > 5 µM
O=C(C1CN(c2ccccn2)C1)N1CCc2[nH]cnc2C1c1ccc2ccccc2n1 (stereo not shown) [listing 2 of 2 here] | > 5 µM
Cc1nc(CCN2CC(F)C2)oc1C(=O)N1CCc2[nH]cnc2C1c1ccc2ccccc2n1 (stereo not shown) [listing 2 of 2 here] | > 5 µM
Cc1nc(N2CCC(F)CC2)oc1C(=O)N1CCc2[nH]cnc2C1c1ccc2ccccc2n1 (stereo not shown) [listing 2 of 2 here] | > 5 µM
COCc1ncc(C(=O)N2CCc3[nH]cnc3C2c2ccc3ccccc3n2)s1 (stereo not shown) | > 5 µM
O=C(c1oc(-c2ccccn2)nc1C1CC1)N1CCCc2[nH]cnc2C1c1ccc2ccccc2n1 (stereo not shown) [listing 2 of 2 here] | > 5 µM
Cc1nc(N2CCOCC2)oc1C(=O)N1CCc2[nH]cnc2C1c1ccc2ccccc2n1 (stereo not shown) [listing 2 of 2 here] | > 5 µM
O=C(c1nnc(-c2ccn(CC(F)F)n2)o1)N1CCc2[nH]cnc2C1c1ccc2ccccc2n1 (stereo not shown) [listing 2 of 2 here] | > 5 µM
O=C(c1nnc(-c2cn[nH]c2)o1)N1CCc2[nH]cnc2C1c1ccc2ccccc2n1 (stereo not shown) [listing 2 of 2 here] | > 5 µM
O=C(c1nnc(CCN2CCOCC2)o1)N1CCc2[nH]cnc2C1c1ccc2ccccc2n1 (stereo not shown) [listing 2 of 2 here] | > 5 µM

Structure (SMILES) | AC50
O=C(c1nnc(N2CC(F)C2)o1)N1CCc2[nH]cnc2C1c1ccc2ccccc2n1 (stereo not shown) [listing 2 of 2 here] | > 5 µM
O=C(c1nnc(C2CC(F)(F)C2)o1)N1CCc2[nH]cnc2C1c1ccc2ccccc2n1 (stereo not shown) [listing 2 of 2 here] | > 5 µM
O=C(c1nnc(-c2ccc(C(F)(F)F)cc2)o1)N1CCc2[nH]cnc2C1c1ccc2ccccc2n1 (stereo not shown) [listing 2 of 2 here] | > 5 µM
O=C(c1nnc(N2CCC(F)CC2)o1)N1CCc2[nH]cnc2C1c1ccc2ccccc2n1 (stereo not shown) [listing 2 of 2 here] | > 5 µM
O=C(c1nnc(-c2ccc(C(F)(F)F)cn2)o1)N1CCc2[nH]cnc2C1c1ccc2ccccc2n1 (stereo not shown) [listing 2 of 2 here] | > 5 µM
O=C(c1nnc(COC(F)(F)F)o1)N1CCc2[nH]cnc2C1c1ccc2ccccc2n1 (stereo not shown) [listing 2 of 2 here] | > 5 µM
O=C(c1cnn(-c2ccccn2)c1Cl)N1CCc2[nH]cnc2C1c1ccc2ccccc2n1 (stereo not shown) [listing 2 of 2 here] | > 5 µM
COCCc1ccc2c(C(=O)N3CCc4[nH]cnc4C3c3ccc4ccccc4n3)cnn2c1 (stereo not shown) [listing 2 of 2 here] | > 5 µM
Cc1nc(N)oc1C(=O)N1CCc2[nH]cnc2C1c1ccc2ccccc2n1 (stereo not shown) [listing 2 of 2 here] | > 5 µM
O=C(c1nnc(CCNC2CC2)o1)N1CCc2[nH]cnc2C1c1ccc2ccccc2n1 (stereo not shown) [listing 2 of 2 here] | > 5 µM
COCCNc1nnc(C(=O)N2CCc3[nH]cnc3C2c2ccc3ccccc3n2)o1 (stereo not shown) [listing 2 of 2 here] | > 5 µM
Cc1nc(NC2CC2)oc1C(=O)N1CCc2[nH]cnc2C1c1ccc2ccccc2n1 (stereo not shown) [listing 2 of 2 here] | > 5 µM
O=C(c1nnc(NC2CC2)o1)N1CCc2[nH]cnc2C1c1ccc2ccccc2n1 (stereo not shown) [listing 2 of 2 here] | > 5 µM
CN(C)c1nnc(C(=O)N2CCc3[nH]cnc3C2c2ccc3ccccc3n2)o1 (stereo not shown) [listing 2 of 2 here] | > 5 µM
CN(C)Cc1nnc(C(=O)N2CCc3[nH]cnc3C2c2ccc3ccccc3n2)o1 (stereo not shown) [listing 2 of 2 here] | > 5 µM
Cc1ncoc1C(=O)N1CC2(CC2)c2[nH]cnc2C1c1ccc2ccccc2n1 (stereo not shown) | 1 to 5 µM
CC1CN(C(=O)c2nnc(C(C)(C)O)o2)C(c2cc3ccccc3cn2)c2nc[nH]c21 (stereo not shown) | 1 to 5 µM
CC1CN(C(=O)c2nnc(N3CCOCC3)o2)C(c2cc3ccccc3cn2)c2nc[nH]c21 (stereo not shown) [listing 1 of 2 here] | 1 to 5 µM
CC1CN(C(=O)c2nnc(N(C)C)o2)C(c2cc3ccccc3cn2)c2nc[nH]c21 (stereo not shown) [listing 1 of 3 here] | 1 to 5 µM
CC1CN(C(=O)c2nnc(N(C)C)o2)C(c2cc3ccccc3cn2)c2nc[nH]c21 (stereo not shown) [listing 2 of 3 here] | 1 to 5 µM
CC1CN(C(=O)c2nnc(N3CCOCC3)o2)C(c2cc3ccccc3cn2)c2nc[nH]c21 (stereo not shown) [listing 2 of 2 here] | > 5 µM
CC1CN(C(=O)c2nnc(N(C)C)o2)C(c2cc3ccccc3cn2)c2nc[nH]c21 (stereo not shown) [listing 3 of 3 here] | > 5 µM
